The values below come from patent US20200078395A1, “AVERTING COMPLICATIONS OF PUMP INHIBITOR THERAPY BY EFFERVESCENT CALCIUM MAGNESIUM CITRATE” (THE BOARD OF REGENTS OF THE UNIVERSITY OF TEXAS SYSTEM, priority 2018, published 2020).

Structures are written as SMILES.

Data set [1] is described as follows: Serum magnesium in CKD Stage 3 and Stage 5D after EffCaMgCit or calcium acetate. The data set is classed as in vivo, human.
Data set [2] can be described thus: Multi-dosing crossover trial on esomeprazole: post-load serum calcium. The data set is classed as in vivo, human. The following applies: for number of subjects with hypocalcemia or marginal hypocalcemia (serum calcium <9 mg/dL): of 22 subjects; for subjects with low or marginally low serum calcium (<9 mg/dL): baseline 18%. The method, then: (§1) The inventors conducted a multi-dosing trial, in which the effect of EffCaMgCit was compared with placebo in a crossover trial in 22 healthy subjects taking PPI at twice the usual dose (esomeprazole 40 mg/day) for 28 days, representing the recommended treatment format for erosive esophagitis-gastritis. During the EffCaMgCit phase, subjects took EffCaMgCit containing 19 meq calcium and 10 meq magnesium twice per day for 28 days. During the Placebo Phase, the subjects took placebo for 28 days. During both phases, the subjects took esomeprazole 40 mg per day. Blood samples were obtained 4 hours after EffCaMgCit dose (in multi-dosing trials with esomeprazole), rather than in the fasting state. Tamsen: no study with PPI in CKD. Peak absorption of calcium and magnesium occurs 2-4 hours after oral load. Thus, pharmacokinetic and pharmacodynamic effects of EffCaMgCit can best be captured in post-load samples.
A venous blood sample was obtained at 4 hours after the morning dose of EffCaMgCit or placebo, for the analysis of Ca, PTH, CTX and Mg after 2 weeks and 4 weeks of treatment. […] In the Placebo group (while on esomeprazole), a low or marginally low serum calcium (<9 mg/dL) was encountered in 23% of subjects at 2 weeks and in 18% of subjects at 4 weeks. […] Thus, not only did EffCaMgCit raise serum calcium, but it also corrected low or marginally low serum calcium. At two weeks of placebo (esomeprazole alone), a higher percentage of subjects had low or marginally low serum calcium than at baseline before esomeprazole (23% vs. 18%). Thus, a low or marginally low serum calcium developed during two weeks of esomeprazole therapy in an additional patient. This subject had normal serum calcium on EffCaMgCit (plus esomeprazole). FIGS. 1 and 2.

The next data set concerns serum PTH. Nature of the data set: Multi-dosing crossover trial on esomeprazole: post-load serum PTH. The data set is classed as in vivo, human. Particulars: of 22 subjects, baseline 8. The protocol: as §1
(§2) A venous blood sample was obtained at 4 hours after the morning dose of EffCaMgCit or placebo, for the analysis of Ca, PTH, CTX and Mg after 2 weeks and 4 weeks of treatment. […] In the Placebo group (while on esomeprazole), a low or marginally low serum calcium (<9 mg/dL) was encountered in 23% of subjects at 2 weeks and in 18% of subjects at 4 weeks. […] Thus, not only did EffCaMgCit raise serum calcium, but it also corrected low or marginally low serum calcium. […]

The subject of another data set is serum CTX. Nature of the data set: Multi-dosing crossover trial on esomeprazole: post-load serum CTX (bone resorption marker). The data set is classed as in vivo, human. The following applies: of 22 subjects. Further details: dose or concentration left out as unconfirmed. The method, then: as §1, §2
Data set [3] is described as follows: Multi-dosing crossover trial on esomeprazole: post-load serum magnesium. The data set is classed as in vivo, human. The following applies: for number of subjects with hypomagnesemia or marginal hypomagnesemia (<2 mg/dL): of 22 subjects, baseline 2; for subjects with hypomagnesemia or marginal hypomagnesemia (<2 mg/dL): baseline 9%. The protocol:
as §1
Serum magnesium was determined at 2 weeks and 4 weeks at 4 hours after the morning dose. […] At baseline (before starting esomeprazole), 9% of subjects had hypomagnesemia or marginal hypomagnesemia (<2 mg/dL). During treatment with placebo with esomeprazole, hypomagnesemia or marginal hypomagnesemia was found in a higher percentage of subjects (14% at 2 weeks, and 23% at 4 weeks). During treatment with EffCaMgCit with esomeprazole, no subjects had hypomagnesemia or marginal hypomagnesemia. FIGS. 7 and 8.

The nature of data set [4]: Multi-dosing crossover trial on esomeprazole: fractional excretion of magnesium (FEMg). The data set is classed as in vivo, human. The following applies: from baseline over 2-4 weeks. The protocol:
as §1

Data set [5] can be described thus: Multi-dosing crossover trial on esomeprazole: 24-h urinary citrate and ammonium (acid load). Particulars: after 2-4 weeks of treatment. The data set is classed as in vivo, human. The method, then: as §1
24-h urinary citrate and ammonium, urinary markers of acid-base balance, were determined at baseline and after 2-4 weeks of treatment with esomeprazole (plus placebo) and after treatment with esomeprazole (plus EffCaMgCit). […] FIGS. 10 and 11.

For another data set, the system named is serum FGF23. Kind of data set: Multi-dosing crossover trial on esomeprazole: post-load serum FGF23. The data set is classed as in vivo, human. Particulars: 4 hours after morning dose, baseline to 4 weeks. The method, then: as §1
The conditions of data set [6]: omeprazole use versus non-omeprazole use, FDA Adverse Event Reporting System 2012 (Tamura, 2012); cited from earlier work.

With `CC(=O)[O-].CC(=O)[O-].[Ca+2]` [calcium acetate], the “serum magnesium after treatment” value in [1] (CKD Stage 3, data not shown) is listed as “did not change”. Further, the “serum Mg after treatment” value in data set [1] (CKD Stage 5D without residual renal function) was “did not”.

For the molecule `COc1ccc2nc([S@@+]([O-])Cc3ncc(C)c(OC)c3C)[nH]c2c1` [esomeprazole], the figures for the “number of subjects with hypocalcemia or marginal hypocalcemia (serum calcium <9 mg/dL)” value in [2] (after 4 weeks) and in [2] (at 2 weeks) were 4 subjects and 5 subjects, respectively. The “subjects with low or marginally low serum calcium (<9 mg/dL)” value stood at 23% in data set [2] (at 2 weeks) and 18% in [2] (at 4 weeks). In addition, the “number of subjects with high serum PTH (>65 pg/ml)” value with serum PTH (at 2 weeks) worked out at 15 subjects; in the data set on serum PTH (at 4 weeks) it was 10 subjects. The “number of subjects with high serum CTX (upper normal limit)” value in the data set with serum CTX (at 2 weeks) and with serum CTX (at 4 weeks) was “Six” throughout. Also, the “number of subjects with hypomagnesemia or marginal hypomagnesemia (<2 mg/dL)” value was determined as 3 subjects in [3] (at 2 weeks) and 5 subjects in data set [3] (at 4 weeks). The “subjects with hypomagnesemia or marginal hypomagnesemia (<2 mg/dL)” value is 14% in data set [3] (at 2 weeks) and 23% in [3] (at 4 weeks). Moreover, in data set [4], the “FEMg, change during treatment” value is listed as “trended downward”. Further, in data set [5], the “24-h urinary ammonium compared with baseline” value is listed as “marginally higher”. Besides, the “24-h urinary citrate compared with baseline” value in [5] is “significantly lower”. Moreover, the “serum FGF23, change from Baseline” value is reported as “trend toward a decline” in the data set with serum FGF23 and “tended to rise” in the data set with serum FGF23 (listed as PPI).

Regarding `COc1ccc2[nH]c([S+]([O-])Cc3ncc(C)c(OC)c3C)nc2c1` (centres unmarked) [omeprazole], in data set [6], the “odds ratio of hypomagnesemia” value was 2.76.
